According to US5919668A, “Non-reducing saccharide and its production and use” (Kabushiki Kaisha Hayashibara Seibutsu Kagaku Kenkyujo, priority 1994, dated 1999):
“Also recorded” adds a separate entry of the source.

Legend:
[1] = Reducing power by the Somogyi-Nelson method, represented in terms of DE; format: physicochemical
Procedure: The high-purity preparations of the newly formed saccharides were determined for reducing power by the Somogyi-Nelson method and represented in terms of DE.

[2] = Maillard reaction (coloration with glycine, absorbance at 480 nm); format: physicochemical; conditions: for Coloration degree at 480 nm: 10% saccharide, 1% glycine, 50 mM phosphate buffer pH7.0, 100° C., 90 minutes, 1 cm cuvette
Procedure: Solutions of 10% saccharide preparation PI, PII, PIII, PIV or PV prepared in Experiment 4 and 1% glycine in 50 mM phosphate buffer (pH7.0) were incubated at 100° C. for 90 minuets, cooled and determined in 1 cm cuvette for absorbance at 480 nm. As control, maltotriose, maltotetraose, maltopentaose, maltohexaose and maltoheptaose which were used as the starting materials were treated similarly as above and determined for absorbance at 480 nm.
10% High-purity trehalose preparation, purity of 99.5%, obtained by the method in Experiment 17 and 1% glycine in 50 mM phosphate buffer (pH7.0) was incubated at 100° C. for 90 minutes, cooled and measured in lcm cuvette for absorbance at 480 nm. As control, glucose and maltose were treated similarly as above and then measured for absorbance at 480 nm.

[3] = system: pig kidney trehalase; test: Degradation by pig kidney trehalase; format: biochemical; conditions: trehalose, or trehalose formed from PI-PV; pH5.7, 37° C., 18 hours for the latter
Procedure: In order to purify trehalose from respective reaction products, they were decolored, deionized, concentrated and subjected to column fractionation on a strongly-acidic cation exchange of sodium form "XT-1016", followed by recovering high-purity fractions with trehalose contents of 97% or higher. The fractions were then concentrated to about 65% and allowed to standing at 25° C. for 2 days to crystallize out crystalline trehalose hydrate which was then separated and dried in vacuo to obtain a high-purity preparation with a trehalose content of 99% or higher. The yields against respective starting substrates on dry solid basis were as follows: from glycosyl trehalose, 9.5%; from maltosyl trehalose, 14.9%; from maltotriosyl trehalose, 16.0%; from maltotetraosyl trehalose, 18.5%; and from maltopentaosyl trehalose, 17.7%. […] As evident from the above results, the saccharides formed by subjecting alpha-glycosyl trehaloses to the trehalose-releasing enzyme were identified to be trehalose.

[4] = Acute toxicity test, oral administration in mice; format: in vivo; conditions: mouse, in vivo; oral, mice
Procedure: (§1) Acute toxicity tests were conducted on the non-reducing saccharide preparations PI, PII, PIII, PIV and PV prepared in Experiment 4, where they were orally administered to 7 week-old dd mice. […] Thus the LD50 of these saccharides was at least 50 g/kg or higher.
(§2) An acute toxicity test was conducted on a high-purity trehalose preparation obtained by the method in Experiment 17, purity of 99.5%, where it was orally administered in mice. […] Thus its LD50 would be briefly 50 g/kg or higher.

[5] = system: mice; test: Acute toxicity test, oral administration in mice; format: in vivo; conditions: oral, mice
Procedure: as §1, §2

[6] = Test for assimilation in vivo (blood sugar and insulin levels); conditions: 30 g oral, healthy men
Procedure: In accordance with the method reported by Atsuji et al., Rinsho Eiyo (Clinical Nutrition), Vol.41, No. 2, pp.200-208 (1972), 30 g of a high-purity trehalose preparation, purity of 99.5%, obtained by the method in Experiment 17 was prepared into 20 w/v % aqueous solution and orally administered to healthy men, age of 26, 27, 28, 29, 30 or 31 years, after which their bloods were periodically sampled and measured for blood sugar and insulin levels. Glucose was used as control.

[7] = system: non-reducing saccharide-forming enzyme; format: biochemical, Rhizobium species M-11; conditions: for Composition: residual substrate: non-reducing saccharide-forming enzyme, 48 h, pH 7; for Composition: newly formed saccharide: 20% substrate, 2 units/g, 40° C., pH7.0, 48 hours
Procedure: 20% Aqueous solutions of glucose, maltose, maltotriose, maltotetraose, maltopentaose, maltohexaose or maltoheptaose as substrate were prepared, added with 2 units/g substrate solid of the purified enzyme obtained in Experiment 2, allowed to react at 40° C. and pH7.0 for 48 hours, deionized and analyzed for reaction products on high-performance liquid chromatography using "WAKO BEADS WB-T-330", a product of Wako Pure Chemical Industries, Ltd., Osaka, Japan. The high-performance liquid chromatography was conducted at ambient temperature, where water as eluent was flowed at a rate of 0.5 ml/min and "Model RI-8012", a differential reflactometer commercialized by Tosoh Corp., Tokyo, Japan, was used for analysis.

[8] = target: T1, trehalose-releasing enzyme (Rhizobium sp. M-11, UniProt Q53238); format: biochemical, Rhizobium species M-11; conditions: trehalose-releasing enzyme, 48 h, pH 7
T1 construct: M-11, about 58-68 kDa
T1 sequence (Q53238 1-596): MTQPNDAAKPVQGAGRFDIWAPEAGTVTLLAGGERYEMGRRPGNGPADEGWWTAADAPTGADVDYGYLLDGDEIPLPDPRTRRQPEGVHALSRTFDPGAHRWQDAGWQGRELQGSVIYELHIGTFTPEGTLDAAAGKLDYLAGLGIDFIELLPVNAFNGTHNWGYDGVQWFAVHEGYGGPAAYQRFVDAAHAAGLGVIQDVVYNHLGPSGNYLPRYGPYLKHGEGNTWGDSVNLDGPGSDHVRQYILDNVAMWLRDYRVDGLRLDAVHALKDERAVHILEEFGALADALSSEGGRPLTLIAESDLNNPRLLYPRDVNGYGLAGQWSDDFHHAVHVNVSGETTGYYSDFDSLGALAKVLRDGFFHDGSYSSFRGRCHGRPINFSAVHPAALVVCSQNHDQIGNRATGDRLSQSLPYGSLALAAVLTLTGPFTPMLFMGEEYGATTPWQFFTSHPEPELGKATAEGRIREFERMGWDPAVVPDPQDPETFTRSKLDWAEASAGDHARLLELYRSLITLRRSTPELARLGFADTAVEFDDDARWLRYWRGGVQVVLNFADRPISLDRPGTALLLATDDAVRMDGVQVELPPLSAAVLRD
Procedure: Alpha-glycosyl trehaloses as substrates were prepared in accordance with the method described in Japanese Patent Application No. 349,216/93. More particularly, 20% aqueous solutions of maltotriose, maltotetraose, maltopentaose, maltohexaose or maltoheptaose as reducing partial starch hydrolysate were added with 2 units/g substrate solid of a purified non-reducing saccharide-forming enzyme obtained by the method in […], reacted at 40° C. and pH7.0 for 48 hours, heated for inactivation, filtered, deionized, concentrated in conventional manner and applied to ion exchange column chromatography on a strongly-acidic cation exchange "XT-1016" in sodium form. The ion exchange resin was packed in 3 jacketed-stainless steel columns, inner diameter of 2.0 cm, length of 1 m, and the columns were cascaded, loaded with 5 v/v % reaction saccharide liquid against the resin and injected with 55° C. water at SV0.13 for fractionation while keeping the temperature inside the columns at 55° C., thus obtaining high-purity preparations of non-reducing saccharides with glucose polymerization degrees of 3 or higher.
20% Aqueous solutions of these five types of non-reducing saccharides or alpha-glycosyl trehaloses were prepared, added with 2 units/g substrate solid of the purified trehalose-releasing enzyme obtained in Experiment 15, reacted at 40° C. and pH7.0 for 48 hours, deionized and subjected to high-performance liquid chromatography on "WAKO BEADS WB-T-330" for analysis of reaction products. As control, maltotriose, maltotetraose, maltopentaose, maltohexaose and maltoheptaose were subjected to the purified trehalose-releasing enzyme similarly as above and then analyzed on high-performance liquid chromatography.

[9] = Properties of products (hygroscopicity, viscosity, stability, tonicity); format: physicochemical

Structure (SMILES) | Coloration degree at 480 nm [2] | Composition: residual substrate [7] | Composition: newly formed saccharide [7] | Composition: residual substrate [8] | further results
OC[C@H]1O[C@H](O[C@H]2O[C@H](CO)[C@@H](O)[C@H](O)[C@H]2O)[C@H](O)[C@@H](O)[C@@H]1O [Trehalose, alpha,alpha-trehalose] | 0.006 |  |  |  | Reducing power (in words) [1]: exhibits no reducing power; Coloration relative to glucose and maltose ([2]; 480 nm, with glycine): 0.4-0.6%; Degradation by pig kidney trehalase (in words) [3]: degraded by the trehalase derived from pig kidney; LD50 [4]: ≥ 50000 mg/kg; Animal death at the possible highest dose [5]: caused no death even in the possible highest dose; Time of maximum blood sugar level after administration ([6]; 20 w/v % aqueous solution): 0.5 to 1 h; Time of maximum insulin level after administration ([6]; 20 w/v % aqueous solution): 0.5 to 1 h; Assimilation (in words) ([6]; glucose as control): trehalose behaved similarly as glucose did; also recorded: readily digested and absorbed and then metabolized and utilized as energy source
OC[C@H]1O[C@H](O[C@H]2[C@H](O)[C@@H](O)C(O)O[C@@H]2CO)[C@H](O)[C@@H](O)[C@@H]1O (mixture of isomers) [Maltose, maltose] | 0.926 | 100.0% |  |  | Formation of new saccharides from substrate (in words) [7]: No saccharides were newly formed
OC[C@H]1OC(O)[C@H](O)[C@@H](O)[C@@H]1O (stereo partly drawn) [Glucose, glucose] | 1.671 | 100.0% |  |  | Formation of new saccharides from substrate (in words) [7]: No saccharides were newly formed
OC[C@H]1O[C@H](O[C@H]2O[C@H](CO)[C@@H](O)[C@H](O)[C@H]2O)[C@H](O)[C@@H](O)[C@@H]1O [Example A-5] |  |  |  |  | Hygroscopicity (in words) [9]: substantially free of hygroscopicity

More lines, main results first:

Coloration degree at 480 nm [2] | Composition: residual substrate [7] | Composition: newly formed saccharide [7] | Composition: residual substrate [8] | Structure (SMILES) | further results
0.318 | 6.5% | 93.5% | 100% | OC[C@H]1O[C@H](O[C@H]2[C@H](O)[C@@H](O)[C@@H](O[C@H]3[C@H](O)[C@@H](O)[C@@H](O[C@H]4[C@H](O)[C@@H](O)[C@@H](O[C@H]5[C@H](O)[C@@H](O)[C@@H](O[C@H]6[C@H](O)[C@@H](O)C(O)O[C@@H]6CO)O[C@@H]5CO)O[C@@H]4CO)O[C@@H]3CO)O[C@@H]2CO)[C@H](O)[C@@H](O)[C@@H]1O (stereo partly drawn) [Maltohexaose, maltohexaose, reference compound] | 
0.271 | 6.6% | 93.4% | 100% | OC[C@H]1O[C@H](O[C@H]2[C@H](O)[C@@H](O)[C@@H](O[C@H]3[C@H](O)[C@@H](O)[C@@H](O[C@H]4[C@H](O)[C@@H](O)[C@@H](O[C@H]5[C@H](O)[C@@H](O)[C@@H](O[C@H]6[C@H](O)[C@@H](O)[C@@H](O[C@H]7[C@H](O)[C@@H](O)C(O)O[C@@H]7CO)O[C@@H]6CO)O[C@@H]5CO)O[C@@H]4CO)O[C@@H]3CO)O[C@@H]2CO)[C@H](O)[C@@H](O)[C@@H]1O (stereo partly drawn) [Maltoheptaose, maltoheptaose, reference compound] | 
0.369 | 7.3% | 92.7% | 100% | OC[C@H]1O[C@H](O[C@H]2[C@H](O)[C@@H](O)[C@@H](O[C@H]3[C@H](O)[C@@H](O)[C@@H](O[C@H]4[C@H](O)[C@@H](O)[C@@H](O[C@H]5[C@H](O)[C@@H](O)C(O)O[C@@H]5CO)O[C@@H]4CO)O[C@@H]3CO)O[C@@H]2CO)[C@H](O)[C@@H](O)[C@@H]1O (stereo partly drawn) [Maltopentaose, maltopentaose, reference compound] | 
0.475 | 14.4% | 85.6% | 100% | OC[C@H]1O[C@H](O[C@H]2[C@H](O)[C@@H](O)[C@@H](O[C@H]3[C@H](O)[C@@H](O)[C@@H](O[C@H]4[C@H](O)[C@@H](O)C(O)O[C@@H]4CO)O[C@@H]3CO)O[C@@H]2CO)[C@H](O)[C@@H](O)[C@@H]1O (stereo partly drawn) [Maltotetraose, maltotetraose, reference compound] | 
0.623 | 65.0% | 35.0% | 100% | OC[C@H]1O[C@H](O[C@H]2[C@H](O)[C@@H](O)[C@@H](O[C@H]3[C@H](O)[C@@H](O)C(O)O[C@@H]3CO)O[C@@H]2CO)[C@H](O)[C@@H](O)[C@@H]1O (stereo partly drawn) [Maltotriose, maltotriose, reference compound] | 
